What was measured:
PC3 cells = assay: Cell viability (MTS) assay, PC3; assay type: cell-based, human; details: 0.1 nM R1881
Description: 1. Cell Culture: LNCaP and PC3 human prostate cancer cells were obtained from American Type Culture Collection (ATCC, Manassas, Va.) and grown in RPMI 1640 medium supplemented with 5% fetal bovine serum (FBS) (Invitrogen). […]. All cells were maintained at 37° C. in 5% CO2.
7. Cell viability assay: The PC3, LNCaP, and MDV3100-resistant cells were plated at 3,000 cells per well in RPMI 1640 containing 5% charcoal stripped serum (CSS) in a 96-well plate, treated with 0.1 nM R1881 and compounds (0-25 μM) for 96 hrs.

full-length human AR = molecular target: T1, full-length human AR (Homo sapiens, UniProt P10275); assay: ARR3tk-luciferase reporter assay in PC3 cells, wild-type AR; assay type: cell-based; details: transient AR, R1881
T1 construct: expressed in transfected cells; host or cells: PC3 (AR-negative human prostate cancer cells)
T1 sequence (P10275 1-920): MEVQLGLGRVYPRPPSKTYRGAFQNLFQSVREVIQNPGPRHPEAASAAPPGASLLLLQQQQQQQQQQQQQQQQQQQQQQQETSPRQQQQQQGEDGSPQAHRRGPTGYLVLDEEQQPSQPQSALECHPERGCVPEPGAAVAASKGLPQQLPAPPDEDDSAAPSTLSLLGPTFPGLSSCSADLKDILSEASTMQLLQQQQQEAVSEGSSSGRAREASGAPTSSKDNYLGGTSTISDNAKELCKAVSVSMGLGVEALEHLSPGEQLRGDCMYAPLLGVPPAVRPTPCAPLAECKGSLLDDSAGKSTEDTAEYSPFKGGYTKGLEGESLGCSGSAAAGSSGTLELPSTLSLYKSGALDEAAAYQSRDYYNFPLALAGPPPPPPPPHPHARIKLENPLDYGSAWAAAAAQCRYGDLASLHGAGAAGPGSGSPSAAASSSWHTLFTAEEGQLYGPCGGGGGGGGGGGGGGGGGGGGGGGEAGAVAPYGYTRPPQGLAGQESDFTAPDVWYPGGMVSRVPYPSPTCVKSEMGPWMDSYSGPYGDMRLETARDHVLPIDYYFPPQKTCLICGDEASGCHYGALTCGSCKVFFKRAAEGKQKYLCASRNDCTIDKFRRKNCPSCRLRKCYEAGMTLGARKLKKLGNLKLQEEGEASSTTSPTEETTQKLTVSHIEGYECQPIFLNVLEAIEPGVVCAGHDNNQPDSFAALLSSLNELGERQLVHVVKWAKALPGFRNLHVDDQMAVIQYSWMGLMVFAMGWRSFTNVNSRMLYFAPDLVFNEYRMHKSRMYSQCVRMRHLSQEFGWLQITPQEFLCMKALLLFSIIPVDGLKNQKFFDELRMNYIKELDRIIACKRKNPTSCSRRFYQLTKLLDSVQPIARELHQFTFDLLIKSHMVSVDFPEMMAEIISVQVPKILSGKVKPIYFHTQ
Description: (§1) 9. Transient Transfection: The PC3/MCF7 cells were seeded into a 96-well plate (2,000 cells/well). After 24 hrs, the wild-type AR (50 ng/well)/AR mutants and AR3TK-luciferase plasmids (1:3) were co-transfected into PC3 cells or ERE-luciferase (50 ng/well) was transfected into MCF7 cells using transfection reagent TT20. 24 hrs after the transfection, the cells were treated with the compounds at various concentrations. And 24 hrs later, the cells were lysed and the reading was taken using a luminometer.

AR Y594D mutant = molecular target: T2, AR Y594D mutant (Homo sapiens, UniProt P10275, Y594D); assay: ARR3tk-luciferase reporter assay in PC3 cells, AR Y594D; assay type: cell-based
T2 construct: expressed in transfected cells; host or cells: PC3
T2 sequence (P10275 whole entry Y594D): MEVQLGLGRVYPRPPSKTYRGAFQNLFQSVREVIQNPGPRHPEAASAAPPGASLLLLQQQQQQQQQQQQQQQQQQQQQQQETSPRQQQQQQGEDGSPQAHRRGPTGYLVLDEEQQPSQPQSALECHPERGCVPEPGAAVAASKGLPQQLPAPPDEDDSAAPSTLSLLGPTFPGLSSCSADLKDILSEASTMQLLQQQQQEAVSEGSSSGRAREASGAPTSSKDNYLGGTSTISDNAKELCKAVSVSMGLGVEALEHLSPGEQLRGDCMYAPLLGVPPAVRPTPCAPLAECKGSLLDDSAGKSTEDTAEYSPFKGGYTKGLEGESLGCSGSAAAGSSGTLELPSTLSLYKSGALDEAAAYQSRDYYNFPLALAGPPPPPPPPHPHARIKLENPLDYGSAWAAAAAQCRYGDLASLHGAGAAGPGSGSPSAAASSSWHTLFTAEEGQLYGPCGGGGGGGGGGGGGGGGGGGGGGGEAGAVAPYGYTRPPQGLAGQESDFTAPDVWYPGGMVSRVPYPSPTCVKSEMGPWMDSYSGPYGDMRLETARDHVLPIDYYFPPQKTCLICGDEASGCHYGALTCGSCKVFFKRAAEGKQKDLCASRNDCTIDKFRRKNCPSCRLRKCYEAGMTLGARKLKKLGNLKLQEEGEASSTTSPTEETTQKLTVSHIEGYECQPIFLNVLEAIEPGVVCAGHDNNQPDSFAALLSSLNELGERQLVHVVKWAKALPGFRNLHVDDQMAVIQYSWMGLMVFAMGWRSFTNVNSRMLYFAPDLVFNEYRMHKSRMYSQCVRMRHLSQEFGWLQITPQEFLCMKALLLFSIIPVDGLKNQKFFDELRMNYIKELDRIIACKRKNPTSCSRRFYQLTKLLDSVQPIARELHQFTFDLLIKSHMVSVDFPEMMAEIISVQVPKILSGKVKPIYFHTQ
Description: 8. Mutation Studies: The residues in the predicted binding site were mutated using the Quickchange™ Site-Directed Mutagenesis Kit as per the instructions.
as §1

endogenous wild type AR = assay: ARR3tk-luciferase assay in R1-AD1 cells; assay type: cell-based, human
AR v567es = assay: ARR3tk-luciferase assay in R1-D567 cells; assay type: cell-based, human
PSA = PSA measurements, LNCaP cells, 1 nM R1881, 2 days; assay type: cell-based, human
Description: Following the incubation period, 150 μl of the media was taken from each well, and PSA levels were quantified using a Cobas e411 analyzer (Roche Applied Science™) according to the manufacturer's instructions. The same instrument was used to analyze serum PSA from mice during the in vivo analysis.

PARP = assay: Western blots against PARP / cleaved PARP (apoptosis); assay type: cell-based, human; details: PC3 luciferase assay lysates
Description: (§2) Cell lysates (40 μl) from luciferase assays (96-well plate) were separated on a 10% SDS-polyacrylamide mini gel. Protein was transferred to methanol-charged PVDF membranes and probed with anti-AR441 (mouse, Sigma™) monoclonal primary antibody. Blots were also probed with polyclonal anti-actin (rabbit, Sigma™) to show equal loading and polyclonal anti-PARP/anti-cleaved PARP (rabbit, Sigma™) to test for induction of apoptosis. Lysates from CWR-R1 cells were additionally probed with polyclonal anti-FKBP5 (rabbit, Sigma™) following 2 days of incubation with compounds.

FKBP5 = assay: Western blot FKBP5 protein in R1-D567 cells; assay type: cell-based, human
Description: as §2

AR Q592A mutant = AR Q592A mutant (Homo sapiens, UniProt P10275, Q592A); assay: ARR3tk-luciferase reporter assay in PC3 cells, AR Q592A
AR Q592A mutant, sequence (P10275 whole entry Q592A): as the sequence (P10275 whole entry Y594D) above, with Q592A, D594Y counted along it
Description: Cells were then treated with compounds at various concentrations and 0.1 nMR1881 (in 100% ethanol) for 24 h. […] Cell lysis was carried out with 60 μl of 1X passive lysis buffer/well (Promega™)
20 μl of cell lysate from each well were mixed with 50 μl of luciferase assay reagent (Promega™), and luminescence was recorded on a TECAN™ M200pro plate reader. Luciferase assays with splice variant AR were performed the same way but with only 5 ng of pcDNA3.1 AR-V7 (to limit the high level of AR-V7 expression) and no R1881.

SMILES	inhibition of cell growth, PC3 (AR-negative) (PC3 cells)	IC50 (full-length human AR) [µM]	inhibition of Y594D AR luciferase expression (AR Y594D mutant)	inhibition of wild type AR transcriptional activity (endogenous wild type AR)	inhibition of AR v567es transcriptional activity (AR v567es)	IC50 secreted PSA (PSA)	toxicity / induction of apoptosis (PARP cleavage) (PARP)	FKBP5 protein expression, R1-D567 cells (FKBP5)	IC50 (AR Q592A mutant) [µM]	concentration at which Y594D AR is inhibited (AR Y594D mutant; PC3 cells) [µM]
c1ccc(-c2csc(N3CCOCC3)n2)cc1 [Compound 14228, 4-(4-phenylthiazol-2-yl)morpholine]	no effect	2.36	not affected	could inhibit	could inhibit	sub-micromolar	little or no toxicity	reduced	3 to 6	–
Brc1ncn(-c2csc(N3CCOCC3)n2)c1Br [Compound 14449]	ineffective	0.34	–	could inhibit	could inhibit	sub-micromolar	little or no toxicity	reduced	3 to 6	≥ 25

— patent publication US10011573B2, “Human androgen receptor DNA-binding domain (DBD) compounds as therapeutics and methods for their use” (The University of British Columbia, priority 2014, dated 2018)
